Results taken from patent US20140121168A1, “ANTAGONISTS OF TRPV1 RECEPTOR” (ANTAGONISTS OF TRPV1 RECEPTOR, priority 2011, published 2014).
Where a SMILES comes first, the peptide text is derived from it. Bridges are numbered along the chain shown (N, C = ends). [ ]: non-standard residue; d: D form. d(aThr) = C[C@@H](O)[C@@H](N)C(=O)O; Dhb = C/C=C(\N)C(=O)O

Target: TRPV1 (Homo sapiens, UniProt Q8NER1)
Test: TRPV1 assays, inhibition of capsaicin response (cell line not stated for the IC50 values)

Chain of TRPV1 (Q8NER1 whole entry): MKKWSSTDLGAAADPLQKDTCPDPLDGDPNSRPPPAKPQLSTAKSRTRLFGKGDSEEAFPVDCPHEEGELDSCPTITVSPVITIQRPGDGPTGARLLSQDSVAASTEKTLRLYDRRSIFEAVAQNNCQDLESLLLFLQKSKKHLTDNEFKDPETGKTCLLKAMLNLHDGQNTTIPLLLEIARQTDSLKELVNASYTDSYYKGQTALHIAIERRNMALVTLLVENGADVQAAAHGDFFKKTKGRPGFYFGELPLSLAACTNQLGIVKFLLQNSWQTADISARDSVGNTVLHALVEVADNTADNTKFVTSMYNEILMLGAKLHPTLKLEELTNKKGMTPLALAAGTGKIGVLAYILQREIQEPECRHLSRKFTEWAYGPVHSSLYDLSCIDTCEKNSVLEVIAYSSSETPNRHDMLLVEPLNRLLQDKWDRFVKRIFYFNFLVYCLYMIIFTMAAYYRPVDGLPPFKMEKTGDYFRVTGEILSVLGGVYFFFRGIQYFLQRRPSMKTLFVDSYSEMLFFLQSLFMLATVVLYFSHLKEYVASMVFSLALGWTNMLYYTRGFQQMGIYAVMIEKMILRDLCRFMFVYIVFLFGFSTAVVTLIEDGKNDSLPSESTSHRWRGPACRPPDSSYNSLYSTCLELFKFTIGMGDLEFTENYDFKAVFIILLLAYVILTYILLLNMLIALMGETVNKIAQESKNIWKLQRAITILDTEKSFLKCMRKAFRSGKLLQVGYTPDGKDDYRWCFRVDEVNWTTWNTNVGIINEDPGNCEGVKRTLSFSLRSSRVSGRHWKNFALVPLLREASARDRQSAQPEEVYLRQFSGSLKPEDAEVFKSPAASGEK

Compound	inhibitory activity on TRPV1 (in words)
C/C=C1\NC(=O)[C@H](C)NC(=O)[C@H](C(C)C)NC(=O)[C@H](NC(=O)[C@H](Cc2ccccc2)NC(=O)[C@@H](CC(C)C)NC(=O)[C@@H](Cc2ccccc2)NC(C)=O)[C@@H](C)OC1=O [compound 1, A-3302-B] (Ac-[dF][dL]F[d(aThr)]VA[Dhb]; ester 4-C)	substantial inhibitory activity
Nobilamide E [compound 8]	inactive
